From US20250109135A1, “NOVEL ISOINDOLINONE DERIVATIVE COMPOUNDS AS CASPASE INHIBITORS” (INNOVO THERAPEUTICS INC., priority 2022, published 2025)

Experiments:
[1] = biological target: T1, recombinant human Caspase-1 (Homo sapiens, UniProt P29466); test: Caspase-1 inhibitory activity, fluorescent substrate Ac-YVAD-AFC; format: biochemical; conditions: pH 8; 1 unit recombinant human Caspase-1, 50 μM Ac-YVAD-AFC; read-out: kobs/[I] Caspase-1
T1 construct: purchased Enzo life science
T1 sequence (P29466 120-297 limits assumed): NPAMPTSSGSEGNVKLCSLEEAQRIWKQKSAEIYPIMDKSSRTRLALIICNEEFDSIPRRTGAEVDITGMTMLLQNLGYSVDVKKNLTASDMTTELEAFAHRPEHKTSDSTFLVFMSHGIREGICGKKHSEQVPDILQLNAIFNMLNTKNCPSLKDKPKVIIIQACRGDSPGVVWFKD
T1 sequence (P29466 317-404 limits assumed): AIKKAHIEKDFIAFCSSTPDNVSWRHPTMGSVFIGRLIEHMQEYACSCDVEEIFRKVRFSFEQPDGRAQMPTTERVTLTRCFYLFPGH
How it was run: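 Inactivation kinetics with 1 unit enzyme and 50 μM Ac-YVAD-AFC in 50 mM HEPES pH 8.0, 50 mM KCl, 200 mM NaCl, 10 mM DTT, 0.1% CHAPS, at various compound concentrations. Rate followed over time at Ex/Em 400/505 nm. kobs/[I] binned: A ≥20, B 10–<20, C 1–<10, D <1.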

[2] = test system: Secreted IL-1β in THP-1 cells; test: Interleukin-1β inhibitory activity in human monocytic cells THP-1 (ELISA); format: cell-based; conditions: compound 100 nM, PMA-differentiated THP-1, LPS 10 μg/ml then 5 mM ATP, 24 h
How it was run: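 THP-1 cells were differentiated with 1 μM PMA for 24 h, primed with 10 μg/ml LPS in serum-free medium for 24 h, then given compound at 100 nM for 1 h before 5 mM ATP for 24 h. Secreted IL-1β was measured by ELISA, and inhibition was binned a ≥50%, b 30–<50%, c 10–<30%, d <10%.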

Jurkat cells = test: Apoptosis inhibition activity in human T-lymphocyte cells Jurkat (anti-FAS antibody, intracellular ATP); format: cell-based; conditions: compound 50 nM, 1 μg/ml anti-FAS antibody 24 h, ATP luminescence
Method: To evaluate the effect of the compound of the present invention on apoptosis, Jurkat (ATCC) cells were treated with anti-FAS antibody CH-11 (Merck) to induce apoptosis via the Fas (CD95) receptor, which was assessed by the amount of intracellular ATP.
Jurkat cells were cultured in RPMI 1640 growth medium comprising 10% FBS and antibiotics (100 U/ml Penicillin, 0.1 mg/ml Streptomycin) under 37° C., 5% CO2 conditions. Cultured cells were seeded in growth medium to a concentration of 8×10^4 cells/well in 96-well plates (SPL), pretreated with compound at a concentration of 50 nM for 1 hour, and then treated with 1 μg/ml anti-FAS antibody for 24 hours in an incubator. After 24 h, an ATP lite Luminescence assay kit (PerkinElmer) was used to measure ATP and luminescence was measured at 580 nm using a CLARIOstar Plus spectrometer. If the inhibitory activity is 30% or more, it is denoted as a′, if it is 20% or more but less than 30%, it is denoted as b′, if it is 10% or more but less than 20%, it is denoted as c′, and if it is less than 10%, it is denoted as d′.

| SMILES | kinact/KI [1] [M⁻¹ s⁻¹] | inhibition at 0.1 µM [2] [%] | inhibition at 0.05 µM (Jurkat cells) [%] |
| --- | --- | --- | --- |
| CCC(C(=O)NC(CC(=O)O)C(=O)CF)N1Cc2ccc(-c3cccnc3)cc2C1=O (stereo not drawn) [Compound 4, 5-fluoro-4-oxo-3-(2-(1-oxo-6-(pyridin-3-yl)isoindolin-2-yl)butanamido)pentanoic acid] | 0.0167 to 0.167 | 30 to 50 | 10 to 20 |
| CC[C@@H](C(=O)N[C@@H](CC(=O)O)C(=O)COc1c(F)c(F)cc(F)c1F)N1Cc2ccc(-c3ccc4c(c3)OCCO4)cc2C1=O [Compound 51, (S)-3-((S)-2-(6-(2,3-di hydrobenzo[b][1,4]dioxin-6-yl)-1-oxoisoindolin-2-yl)butanamido)-4-oxo-5-(2,3,5,6-tetrafluorophenoxy)pentanoic] | 0.167 to 0.333 | 30 to 50 | 20 to 30 |
| CCC(C(=O)NC(CC(=O)O)C(=O)CF)N1Cc2ccc(-c3ccc4c(c3)OCCO4)cc2C1=O (stereo not drawn) [Compound 27, 3-(2-(6-(2,3-dihydrobenzo[b][1,4]dioxin-6-yl)-1-oxoisoindolin-2-yl)butanamido)-5-fluoro-4-oxopentanoic acid] | 0.0167 to 0.167 | 10 to 30 | ≥ 30 |
